Experimental findings from PMC7178174, “Residues in Transmembrane Segments of the P2X4 Receptor Contribute to Channel Function and Ethanol Sensitivity” (International Journal of Molecular Sciences, 2020) are described below.

What all share (assay type): cell-based
The target in assay [1] is T1, rat P2X4R (P2X4 receptor) (Rattus norvegicus, UniProt P51577, V49L).
T1 construct: gene P2rx4; full-length cDNA in pcDNA3, cRNA expressed in Xenopus laevis oocytes; homomeric trimer; ~60 kDa band
T1 sequence (P51577 1-388 V49L): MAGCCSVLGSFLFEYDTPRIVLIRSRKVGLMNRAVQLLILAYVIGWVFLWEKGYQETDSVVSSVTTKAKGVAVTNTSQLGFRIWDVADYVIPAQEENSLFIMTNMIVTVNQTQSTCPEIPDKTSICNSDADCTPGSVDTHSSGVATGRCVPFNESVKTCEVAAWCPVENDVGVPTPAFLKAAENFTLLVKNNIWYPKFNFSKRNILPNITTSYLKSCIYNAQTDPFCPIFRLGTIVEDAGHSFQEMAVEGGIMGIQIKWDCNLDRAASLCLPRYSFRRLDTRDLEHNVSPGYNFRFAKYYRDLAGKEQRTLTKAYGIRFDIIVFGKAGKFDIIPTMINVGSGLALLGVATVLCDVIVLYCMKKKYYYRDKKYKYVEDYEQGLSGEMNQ
Put plainly: two-electrode voltage clamp, Xenopus oocytes, ATP-gated current. The text has this:
(§1) two-electrode voltage clamp, Xenopus oocytes, ATP-gated current on rat P2X4R (P2X4 receptor)
For orientation: Two-electrode voltage clamp is typically applied to oocytes expressing channels or transporters.

Assay [2] addresses T2, rat P2X4R (P2X4 receptor) (Rattus norvegicus, UniProt P51577, R33A).
T2 construct: gene P2rx4; full-length cDNA in pcDNA3, cRNA expressed in Xenopus laevis oocytes; homomeric trimer; ~60 kDa band
T2 sequence (P51577 1-388 R33A): T1 sequence (P51577 1-388 V49L) with R33A, L49V
The description is as above.
Description: as §1

Assay [3] has as its target T3, rat P2X4R (P2X4 receptor) (Rattus norvegicus, UniProt P51577).
T3 construct: gene P2rx4; full-length cDNA in pcDNA3, cRNA expressed in Xenopus laevis oocytes; homomeric trimer; ~60 kDa band
T3 sequence (P51577 1-388): T1 sequence (P51577 1-388 V49L) with L49V
Described as above.
Description: as §1

In assay [4] the target is T4, rat P2X4R (P2X4 receptor) (Rattus norvegicus, UniProt P51577, R33S).
T4 construct: gene P2rx4; full-length cDNA in pcDNA3, cRNA expressed in Xenopus laevis oocytes; homomeric trimer; ~60 kDa band
T4 sequence (P51577 1-388 R33S): T1 sequence (P51577 1-388 V49L) with R33S, L49V
The assay is described as above.
Description: as §1

The target of assay [5] is T5, rat P2X4R (P2X4 receptor) (Rattus norvegicus, UniProt P51577, L37A).
T5 construct: gene P2rx4; full-length cDNA in pcDNA3, cRNA expressed in Xenopus laevis oocytes; homomeric trimer; ~60 kDa band
T5 sequence (P51577 1-388 L37A): T1 sequence (P51577 1-388 V49L) with L37A, L49V
The assay is described as above.
Description: as §1

Assay [6] has as its target T6, rat P2X4R (P2X4 receptor) (Rattus norvegicus, UniProt P51577, W46A).
T6 construct: gene P2rx4; full-length cDNA in pcDNA3, cRNA expressed in Xenopus laevis oocytes; homomeric trimer; ~60 kDa band
T6 sequence (P51577 1-388 W46A): T1 sequence (P51577 1-388 V49L) with W46A, L49V
The description is as above.
Description: as §1

For assay [7], the target named is T7, rat P2X4R (P2X4 receptor) (Rattus norvegicus, UniProt P51577, A34W).
T7 construct: gene P2rx4; full-length cDNA in pcDNA3, cRNA expressed in Xenopus laevis oocytes; homomeric trimer; ~60 kDa band
T7 sequence (P51577 1-388 A34W): T1 sequence (P51577 1-388 V49L) with A34W, L49V
Described as above.
Description: as §1

Assay [8] has as its target T8, rat P2X4R (P2X4 receptor) (Rattus norvegicus, UniProt P51577, V49G).
T8 construct: gene P2rx4; full-length cDNA in pcDNA3, cRNA expressed in Xenopus laevis oocytes; homomeric trimer; ~60 kDa band
T8 sequence (P51577 1-388 V49G): T1 sequence (P51577 1-388 V49L) with L49G
The description is as above.
Description: as §1

Assay [9] addresses T9, rat P2X4R (P2X4 receptor) (Rattus norvegicus, UniProt P51577, R33L).
T9 construct: gene P2rx4; full-length cDNA in pcDNA3, cRNA expressed in Xenopus laevis oocytes; homomeric trimer; ~60 kDa band
T9 sequence (P51577 1-388 R33L): T1 sequence (P51577 1-388 V49L) with R33L, L49V
Described as above.
Description: as §1

In assay [10] the target is T10, rat P2X4R (P2X4 receptor) (Rattus norvegicus, UniProt P51577, F48A).
T10 construct: gene P2rx4; full-length cDNA in pcDNA3, cRNA expressed in Xenopus laevis oocytes; homomeric trimer; ~60 kDa band
T10 sequence (P51577 1-388 F48A): T1 sequence (P51577 1-388 V49L) with F48A, L49V
The assay is described as above.
Description: as §1

Assay [11] has as its target T11, rat P2X4R (P2X4 receptor) (Rattus norvegicus, UniProt P51577, R33K).
T11 construct: gene P2rx4; full-length cDNA in pcDNA3, cRNA expressed in Xenopus laevis oocytes; homomeric trimer; ~60 kDa band
T11 sequence (P51577 1-388 R33K): T1 sequence (P51577 1-388 V49L) with R33K, L49V
The assay is described as above.
Description: as §1

Assay [12] concerns the target T3, rat P2X4R (P2X4 receptor). Put plainly: two-electrode voltage clamp, Xenopus oocytes, inhibition of ATP-gated current. As to conditions: read-out: % inhibition at 100 mM.

The structures appear in SMILES notation. Where a chain is given by its changes, count along the chain named.

`Nc1ncnc2c1ncn2[C@@H]1O[C@H](COP(=O)(O)OP(=O)(O)OP(=O)(O)O)[C@@H](O)[C@H]1O` [ATP]: the concentration giving a half-maximal response (EC50) in assay [1] came to 10.6 ± 1.3 µM; in assay [2] it was 7.04 ± 0.51 µM; in assay [3] it was 5.74 ± 0.45 µM; in assay [4], 4.94 ± 1.09 µM; in assay [5] it was 8.91 ± 0.84 µM; in [6] it was 3.58 ± 0.57 µM. Moreover, the concentration for a half-maximal effect (EC50) in assay [7] came to 6.5 ± 1.02 µM; in assay [8], 9.6 ± 0.9 µM; in assay [9], 5.06 ± 0.7 µM; in [10], 3.53 ± 0.73 µM; in [11] it was 6.33 ± 0.93 µM.
With `CCO` [ethanol], the inhibition at 100000 µM in assay [12] is 44 ± 4%.

Broadly, the EC50 is the concentration that produces a half-maximal response. What is called inhibition is the relative decrease from the control value, in per cent.
